Values quoted from earlier work in patent publication US10281459B2, “Protein biosensors, cross reactive sensor arrays and methods of use thereof” (YEDA RESEARCH AND DEVELOPMENT CO. LTD., priority 2012, dated 2019).

Columns and labels:
[1] = target: GSTs; settings: literature
[2] = target: MMP isoforms; settings: broad-spectrum inhibitor of MMP isoforms; literature

For `C=C(CC)C(=O)c1ccc(OCC(=O)O)c(Cl)c1Cl` [EA, ethacrynic acid], the “reported values for the inhibition of GSTs” value [1] is given as “low micromolar range”.

For `CNC(=O)[C@@H](NC(=O)[C@H](CC(C)C)[C@H](O)C(=O)NO)C(C)(C)C` [Marimastat, marimastat], the Ki values [2] is listed as “low nanomolar range”.
